Test results taken from patent US12458621B1, “Application of genipin beta-methyl derivative gen-17 in preparation of drug for prevention and treatment of acute severe pneumonia” (KUNMING MEDICAL UNIVERSITY, priority 2024, dated 2025).

Columns and labels:
Format in all cases: in vivo, Kunming mice
IL-6 [1] = test: IL-6 mRNA in lung tissue by qRT-PCR
Description: (§1) A total of 144 SPF-grade healthy Kunming mice, aged 5-7 weeks and weighing 18-22 g, are weighed and randomly allocated into six experimental groups: control group (NS), model group (LPS), dexamethasone group (DEX, […] per kilogram abbreviated as mg/kg), genipin beta-methyl derivative low-dose group (12.5 mg/kg), genipin beta-methyl derivative medium-dose group (25 mg/kg), and genipin beta-methyl derivative high-dose group (50 mg/kg), 24 animals per group, in which 12 animals are used to take lung tissue for the detection of other indicators, and another 12 animals are used to collect BALF. […]
(§2) Samples are collected 24 hours after the animal model is established. […] Lung tissues are collected and the whole lung wet weight is measured. […] After tidying, the lungs are photographed, excess tissues such as the trachea are cleared away, and the wet weight of the whole lung is measured to calculate the lung index. • (3) The upper lobe of the left lung is fixed in 4% neutral paraformaldehyde, fixed for 24 hours, paraffin-embedded and sectioned for HE staining. • (4) The remaining lung tissues are put into centrifugal tubes separately, quickly frozen in liquid nitrogen, and then stored at −80° C. after the experiment, which is used for the detection of MDA, SOD, western blotting (WB) and reverse transcription polymerase chain reaction (RT-PCR). […]

Keap1 = Keap1 protein in lung tissue by WB
Description: (§3) The dosage is converted according to the weight of the mice, and the gavage volume is 20 milliliters per kilogram (mL/kg), and the gavage is continued for 3 days. One hour after the gavage on the third day, the ALI model is established by tracheal instillation of LPS solution. […] After the mice are awake, they are raised as usual. 2.3 Treatment of Experimental Animals and Collection of Lung Tissue Specimens
(§4) Samples are collected 24 hours after the animal model is established. The mice are weighed and 12 mice in each group are sacrificed. Lung tissues are collected and the whole lung wet weight is measured. […] After tidying, the lungs are photographed, excess tissues such as the trachea are cleared away, and the wet weight of the whole lung is measured to calculate the lung index. • (3) The upper lobe of the left lung is fixed in 4% neutral paraformaldehyde, fixed for 24 hours, paraffin-embedded and sectioned for HE staining. • (4) The remaining lung tissues are put into centrifugal tubes separately, quickly frozen in liquid nitrogen, and then stored at −80° C. after the experiment, which is used for the detection of MDA, SOD, western blotting (WB) and reverse transcription polymerase chain reaction (RT-PCR). […]
The lung tissue is taken out from −80° C., and its weight is accurately measured. […]

IL-1β = IL-1β content in BALF by ELISA
Description: (§5) A total of 144 SPF-grade healthy Kunming mice, aged 5-7 weeks and weighing 18-22 g, are weighed and randomly allocated into six experimental groups: control group (NS), model group (LPS), dexamethasone group (DEX, […] per kilogram abbreviated as mg/kg), genipin beta-methyl derivative low-dose group (12.5 mg/kg), genipin beta-methyl derivative medium-dose group (25 mg/kg), and genipin beta-methyl derivative high-dose group (50 mg/kg), 24 animals per group, in which 12 animals are used to take lung tissue for the detection of other indicators, and another 12 animals are used to collect BALF.
(§6) All mice are gavaged with a same volume of 0.9% normal saline once a day in the NS group and the LPS group, DEX solution (0.39 mg/kg) is gavaged once a day in the DEX group, low-dose Gen-17 solution (12.5 mg/kg) is gavaged once a day in the medium-dose Gen-17 group, medium-dose Gen-17 solution (25 mg/kg) is gavaged once a day in the high-dose Gen-17 group, and high-dose Gen-17 solution (50 mg/kg) is gavaged once a day in the high-dose Gen-17 group. The dosage is converted according to the weight of the mice, and the gavage volume is 20 milliliters per kilogram (mL/kg), and the gavage is continued for 3 days. One hour after the gavage on the third day, the ALI model is established by tracheal instillation of LPS solution. […]

HO-1 = HO-1 gene expression in lung tissue by qRT-PCR
Description: as §1, §2

SOD = SOD activity in lung tissue; conditions: compared with LPS group
Description: as §3, §4
The lung tissue is taken out from −80° C., and its weight is accurately measured.

TNF-α [2] = test: TNF-α content in BALF by ELISA
Description: as §5, §6

TNF-α [3] = test: TNF-α mRNA in lung tissue by qRT-PCR
Description: as §1, §2

IL-6 [4] = test: IL-6 content in BALF by ELISA
Description: as §5, §6

LPS-induced ALI mice = test: HE staining histopathology and alveolitis score of lung tissue; conditions: for pathological scores of alveolitis: compared with DEX group (P<0.05)
Description: as §3
Samples are collected 24 hours after the animal model is established. The mice are weighed and 12 mice in each group are sacrificed. Lung tissues are collected and the whole lung wet weight is measured. The lung tissues are packaged for hematoxylin and eosin (HE) staining, MDA and SOD content determination, gene and protein detection. The specific experimental procedures are as follows. • (1) 12 mice in each group are weighed and their necks are dislocated and sacrificed. • (2) The mice are fixed. The abdomen is wiped with 75% alcohol. The thoracic cavity is then opened, and the lung tissue is removed. After tidying, the lungs are photographed, excess tissues such as the trachea are cleared away, and the wet weight of the whole lung is measured to calculate the lung index. • (3) The upper lobe of the left lung is fixed in 4% neutral paraformaldehyde, fixed for 24 hours, paraffin-embedded and sectioned for HE staining. • (4) The remaining lung tissues are put into centrifugal tubes separately, quickly frozen in liquid nitrogen, and then stored at −80° C. after the experiment, which is used for the detection of MDA, SOD, western blotting (WB) and reverse transcription polymerase chain reaction (RT-PCR). 2.4 BALF Collection and Processing

[5] = Gen-17 (12.5, 25, 50 mg/kg gavage) compared with LPS group (P<0.001)
[6] = low-dose Gen-17 12.5 mg/kg gavage, compared with DEX group (P<0.001)
[7] = low-dose Gen-17 12.5 mg/kg gavage, compared with DEX group (P<0.01)
[8] = Gen-17 groups (12.5, 25, 50 mg/kg gavage) compared with LPS group

Compound: COC(=O)C1=CO[C@@H](OC)[C@@H]2C(COC(=O)c3cccc(Br)c3)=CC[C@H]12 [Gen-17, genipin beta-methyl derivative]
- mRNA expression of IL-6 in lung tissue (IL-6 [1]; [5]): significantly reduce the expression
- mRNA expression of IL-6 in lung tissue (IL-6 [1]; [6]): statistical significance
- expression of Keap1 protein in lung tissue, overall result (Keap1; Gen-17 12.5, 25, 50 mg/kg gavage, ALI mice): downregulate the expression of Keap1 protein
- expression of Keap1 protein in lung tissue (decrease) (Keap1; high-dose Gen-17 50 mg/kg gavage, compared with LPS group): statistically significant (P<0.001)
- content of IL-1β in BALF (IL-1β; Gen-17 groups (12.5, 25, 50 mg/kg gavage) compared with LPS group (P<0.05)): reduce the contents of inflammatory cytokines
- IL-1β level in BALF (IL-1β; [7]): statistically significant reduction
- expression of HO-1 gene in lung tissue (HO-1; Gen-17 compared with DEX group (P<0.001)): statistically significant in upregulating the expression of HO-1 gene
- expression of HO-1 gene in lung tissue (HO-1; Gen-17 group compared with NS group): significantly decreased (P<0.001)
- SOD activity in lung tissue (SOD; after drug treatment): significantly increase the SOD activity
- SOD activity in lung tissue (increase) (SOD; high-dose Gen-17 50 mg/kg gavage): statistical significance (P<0.05)
- reduction of the TNF-α level in BALF (TNF-α [2]; Gen-17 compared with DEX group (P>0.05)): no statistically significant difference
- content of TNF-α in BALF (TNF-α [2]; [8]): reduce the contents of inflammatory cytokines
- mRNA expression of TNF-α in lung tissue (TNF-α [3]; [5]): significantly reduce the expression
- mRNA expression of TNF-α in lung tissue (TNF-α [3]; [6]): statistical significance
- content of IL-6 in BALF (IL-6 [4]; [8]): reduce the contents of inflammatory cytokines
- IL-6 level in BALF (IL-6 [4]; [7]): statistically significant reduction
- pathological damage of lung tissue (HE staining) (LPS-induced ALI mice; [8]): significantly alleviate the pathological damage
- pathological score of lung tissue (LPS-induced ALI mice; high-dose Gen-17 50 mg/kg gavage, compared with LPS group (P<0.01)): significantly reduced
- pathological scores of alveolitis (LPS-induced ALI mice; low-dose Gen-17 12.5 mg/kg gavage): increased
- pathological scores of alveolitis (LPS-induced ALI mice; medium-dose Gen-17 25 mg/kg gavage): increased
